Values joined by “and” are separate entries in the source; they are usually repeats but may differ in a detail not shown here. Identical values can stand only once. Toxic doses and inconclusive results are not listed.
System: nude mice, LOX melanoma ip, survival T/C
Experiment: NCI In Vivo Anticancer Drug Screen. Data for tumor model Human Amelanotic Melanoma (LOX) (intraperitoneal) in NU/NU BALB/C (nude) mice
Conditions: endpoint: median survival time, higher = longer survival
Procedure: The antitumor activity of compounds was measured in mice bearing transplantable tumors. Survival or tumor size were measured and the results are expressed as the measurement made in the treated group (T) divided by the measurement made in the vehicle treated control group (C). The tumor model used in this assay is Human Amelanotic Melanoma (LOX) (intraperitoneal) in NU/NU BALB/C (nude) mice

[1] = dose: 37.5 mg/kg/injection, schedule: Q04DX003 (ip), vehicle: saline with Tween-80
[2] = dose: 75.0 mg/kg/injection, schedule: Q04DX003 (ip), vehicle: saline with Tween-80
[3] = dose: 300.0 mg/kg/injection, schedule: Q04DX003 (ip), vehicle: saline with Tween-80
[4] = dose: 50.0 mg/kg/injection, schedule: Q04DX003 (ip), vehicle: saline with Tween-80

SMILES: CC[C@]1(O)C[C@H]2CN(CCc3c([nH]c4ccccc34)[C@@](C(=O)OC)(c3cc4c(cc3OC)N(C)[C@H]3[C@@](O)(C(=O)OC)[C@H](OC(C)=O)[C@]5(CC)C=CCN6CC[C@]43[C@@H]65)C2)C1
- T/C (dose: 0.44 mg/kg/injection, schedule: Q04DX003 (iv), vehicle: saline): 107 % of control
- T/C (dose: 0.67 mg/kg/injection, schedule: Q04DX003 (ip), vehicle: saline): 110 % of control and 203 % of control
- T/C (dose: 0.67 mg/kg/injection, schedule: Q04DX003 (iv), vehicle: saline): 112 % of control
- T/C (dose: 1.7 mg/kg/injection, schedule: Q04DX003 (ip), vehicle: saline): 123 % of control and 203 % of control
- T/C (dose: 1.7 mg/kg/injection, schedule: Q04DX003 (iv), vehicle: saline): 188 % of control

SMILES: CCOC(=O)c1ccc(NN=NCCF)cc1
- T/C (dose: 75.0 mg/kg/injection, schedule: Q04DX003 (ip), vehicle: distilled water + Tween-80 + alcohol): 111 % of control
- T/C (dose: 150.0 mg/kg/injection, schedule: Q04DX003 (ip), vehicle: distilled water + Tween-80 + alcohol): 106 % of control
- T/C (dose: 300.0 mg/kg/injection, schedule: Q04DX003 (ip), vehicle: distilled water + Tween-80 + alcohol): 110 % of control
- T/C (dose: 600.0 mg/kg/injection, schedule: Q04DX003 (ip), vehicle: distilled water + Tween-80 + alcohol): 100 % of control

SMILES: CCOC(=O)C1=C(C)O/C(=C/c2cccc(Cl)c2)C1=O
- T/C [1]: 200 % of control
- T/C [2]: 194 % of control
- T/C (dose: 150.0 mg/kg/injection, schedule: Q04DX003 (ip), vehicle: saline with Tween-80): 152 % of control
- T/C [3]: 184 % of control

SMILES: NC(=S)c1ncn(C2OC(COC=O)C(OC=O)C2OC=O)c1NC=O (stereo not given)
- T/C [4]: 109 % of control
- T/C (dose: 200.0 mg/kg/injection, schedule: Q04DX003 (ip), vehicle: saline with Tween-80): 172 % of control
- T/C (dose: 400.0 mg/kg/injection, schedule: Q04DX003 (ip), vehicle: saline with Tween-80): 188 % of control

SMILES: N#Cc1c(N)[nH]c2ccc(Sc3ccccc3)cc12
- T/C (dose: 15.0 mg/kg/injection, schedule: Q04DX003 (ip), vehicle: saline with Tween-80): 99 % of control
- T/C (dose: 30.0 mg/kg/injection, schedule: Q04DX003 (ip), vehicle: saline with Tween-80): 89 % of control
- T/C (dose: 60.0 mg/kg/injection, schedule: Q04DX003 (ip), vehicle: saline with Tween-80): 94 % of control
- T/C (dose: 120.0 mg/kg/injection, schedule: Q04DX003 (ip), vehicle: saline with Tween-80): 104 % of control
- T/C (dose: 240.0 mg/kg/injection, schedule: Q04DX003 (ip), vehicle: saline with Tween-80): 124 % of control

SMILES: Nc1ccc2ccc(NS(=O)(=O)N3CCCCC3)cc2c1
- T/C [3]: 154 % of control
- T/C (dose: 600.0 mg/kg/injection, schedule: Q04DX003 (ip), vehicle: saline with Tween-80): 96 % of control

SMILES: Cc1ccc(C(=O)NC2C(=O)NC(C(C)C)C(=O)N3CCCC3C(=O)N(C)CC(=O)N(C)C(C(C)C)C(=O)OC2C)c2c1Oc1c(c(C(=O)NC3C(=O)NC(C(C)C)C(=O)N4CCCC4C(=O)N(C)CC(=O)N(C)C(C(C)C)C(=O)OC3C)c3nc(-c4ccccc4)c(=O)oc3c1C)N2 (stereo not given)
- T/C (dose: 0.25 mg/kg/injection, schedule: Q04DX003 (ip), vehicle: saline with Tween-80): 159 % of control
- T/C (dose: 0.5 mg/kg/injection, schedule: Q04DX003 (ip), vehicle: saline with Tween-80): 161 % of control
- T/C (dose: 1.0 mg/kg/injection, schedule: Q04DX003 (ip), vehicle: saline with Tween-80): 224 % of control
- T/C (dose: 2.0 mg/kg/injection, schedule: Q04DX003 (ip), vehicle: saline with Tween-80): 295 % of control
- T/C (dose: 4.0 mg/kg/injection, schedule: Q04DX003 (ip), vehicle: saline with Tween-80): 301 % of control

SMILES: O=C1C2=C(Nc3cc([N+](=O)[O-])ccc3N2)OC1c1ccccn1 (stereo not given)
- T/C (dose: 25.0 mg/kg/injection, schedule: Q04DX003 (ip), vehicle: Klucel (hydroxypropylcellulose) (HPC)): 99 % of control
- T/C (dose: 50.0 mg/kg/injection, schedule: Q04DX003 (ip), vehicle: Klucel (hydroxypropylcellulose) (HPC)): 99 % of control
- T/C (dose: 100.0 mg/kg/injection, schedule: Q04DX003 (ip), vehicle: Klucel (hydroxypropylcellulose) (HPC)): 110 % of control
- T/C (dose: 200.0 mg/kg/injection, schedule: Q04DX003 (ip), vehicle: Klucel (hydroxypropylcellulose) (HPC)): 110 % of control

SMILES: C/C(=N\NC(=S)N1CC2CCC(CC2)C1)c1cccc(C)n1
- T/C (dose: 6.25 mg/kg/injection, schedule: Q04DX003 (ip), vehicle: saline with Tween-80): 105 % of control
- T/C (dose: 12.5 mg/kg/injection, schedule: Q04DX003 (ip), vehicle: saline with Tween-80): 109 % of control
- T/C (dose: 25.0 mg/kg/injection, schedule: Q04DX003 (ip), vehicle: saline with Tween-80): 103 % of control
- T/C [4]: 120 % of control
- T/C (dose: 100.0 mg/kg/injection, schedule: Q04DX003 (ip), vehicle: saline with Tween-80): 109 % of control

SMILES: O=C1CN(CCN2CC(=O)N(CN3CCOCC3)C(=O)C2)CC(=O)N1CN1CCOCC1
- T/C (dose: 18.75 mg/kg/injection, schedule: Q04DX003 (ip), vehicle: saline with Tween-80): 98 % of control
- T/C [1]: 120 % of control
- T/C (dose: 37.5 mg/kg/injection, schedule: Q04DX003 (ip), vehicle: water): 88 % of control
- T/C [2]: 108 % of control
- T/C (dose: 75.0 mg/kg/injection, schedule: Q04DX003 (ip), vehicle: water): 102 % of control
- T/C (dose: 150.0 mg/kg/injection, schedule: Q04DX003 (ip), vehicle: water): 101 % of control

SMILES: CC(CNC(=O)C12CC3CC(CC(C3)C1)C2)NC(=O)C12CC3CC(CC(C3)C1)C2 (stereo not given)
- T/C (dose: 25.0 mg/kg/injection, schedule: Q04DX003 (ip), vehicle: DMSO): 101 % of control
- T/C (dose: 50.0 mg/kg/injection, schedule: Q04DX003 (ip), vehicle: DMSO): 107 % of control
- T/C (dose: 100.0 mg/kg/injection, schedule: Q04DX003 (ip), vehicle: DMSO): 101 % of control
- T/C (dose: 200.0 mg/kg/injection, schedule: Q04DX003 (ip), vehicle: DMSO): 102 % of control

SMILES: CCC1OC(OC)C=CC1=O (stereo not given)
- T/C (dose: 25.0 mg/kg/injection, schedule: Q04DX003 (ip), vehicle: suspension in saline): 96 % of control
- T/C (dose: 50.0 mg/kg/injection, schedule: Q04DX003 (ip), vehicle: suspension in saline): 104 % of control
- T/C (dose: 100.0 mg/kg/injection, schedule: Q04DX003 (ip), vehicle: suspension in saline): 113 % of control

SMILES: N[C@@H](Cc1c[nH]c2ccccc12)C(=O)Nc1nncs1
- T/C (dose: 75.0 mg/kg/injection, schedule: Q04DX003 (ip), vehicle: suspension in saline): 107 % of control
- T/C (dose: 150.0 mg/kg/injection, schedule: Q04DX003 (ip), vehicle: suspension in saline): 94 % of control
- T/C (dose: 300.0 mg/kg/injection, schedule: Q04DX003 (ip), vehicle: suspension in saline): 94 % of control
- T/C (dose: 600.0 mg/kg/injection, schedule: Q04DX003 (ip), vehicle: suspension in saline): 119 % of control

SMILES: COC1=C(OC)C(=O)C(N(C)C)=C(CO)C1=O
- T/C (dose: 25.0 mg/kg/injection, schedule: Q04DX003 (ip), vehicle: saline): 116 % of control
- T/C (dose: 50.0 mg/kg/injection, schedule: Q04DX003 (ip), vehicle: saline): 103 % of control
- T/C (dose: 100.0 mg/kg/injection, schedule: Q04DX003 (ip), vehicle: saline): 104 % of control
- T/C (dose: 200.0 mg/kg/injection, schedule: Q04DX003 (ip), vehicle: saline): 117 % of control

SMILES: NC(CCC(=O)NC(CS)C(=O)NCC(=O)O)C(=O)O (stereo not given)
- T/C (dose: 75.0 mg/kg/injection, schedule: Q04DX003 (ip), vehicle: saline): 100 % of control
- T/C (dose: 150.0 mg/kg/injection, schedule: Q04DX003 (ip), vehicle: saline): 100 % of control
- T/C (dose: 259.0 mg/kg/injection, schedule: Q04DX003 (ip), vehicle: saline): 108 % of control
- T/C (dose: 300.0 mg/kg/injection, schedule: Q04DX003 (ip), vehicle: saline): 107 % of control
- T/C (dose: 432.0 mg/kg/injection, schedule: Q04DX003 (ip), vehicle: saline): 108 % of control
- T/C (dose: 600.0 mg/kg/injection, schedule: Q04DX003 (ip), vehicle: saline): 104 % of control
- T/C (dose: 720.0 mg/kg/injection, schedule: Q04DX003 (ip), vehicle: saline): 93 % of control
- T/C (dose: 1200.0 mg/kg/injection, schedule: Q04DX003 (ip), vehicle: saline): 95 % of control

SMILES: Cc1cc(=NO)cc(C)n1O
- T/C (dose: 75.0 mg/kg/injection, schedule: Q04DX003 (ip), vehicle: distilled water + alcohol): 101 % of control
- T/C (dose: 150.0 mg/kg/injection, schedule: Q04DX003 (ip), vehicle: distilled water + alcohol): 103 % of control
- T/C (dose: 300.0 mg/kg/injection, schedule: Q04DX003 (ip), vehicle: distilled water + alcohol): 101 % of control
- T/C (dose: 600.0 mg/kg/injection, schedule: Q04DX003 (ip), vehicle: distilled water + alcohol): 96 % of control
